Test results reported in patent US20250206717A1, “COMPOUND HAVING ANTI-TUMOR ACTIVITY AND USE THEREOF” (Innovstone Therapeutics Limited, priority 2021, published 2025).
Structures can show the parent of a compound that is named as a salt.

Test system: human B-cell non-Hodgkin lymphoma Z-138 cells
Assay: Growth inhibitory activity on Z-138 cells (CellTiter-Glo, 5 days)
Format: cell-based
Settings: 5 days (120H), read-out: measured cell growth inhibitory IC50 value (Z-138 cell growth)
Method: Vi-Cell XR cell counter, Beckmancoulter.
Cells were revived and cultured in an incubator at 37° C./5% CO2 according to the above-mentioned culturing conditions.
Periodical passaging was performed, and cell lines with good growth status in about two generations were taken for plating.
I. Cells were taken from the incubator. The cell suspension was transferred to a 50 mL centrifuge tube, and centrifuged at
800-1000 rpm for 3-5 minutes. The supernatant was discarded. An appropriate volume of culture medium was added to the centrifuge tube and gently beated to resuspend the cells evenly. Cells were counted using a Vi-Cell XR cell counter.
II. According to the measured cell density, the cell suspension was adjusted to an appropriate concentration.
III. The cell suspension was added into the 384-well plate, 40 μL/well, containing 700 cells/well, and an equal volume of culture medium without cells was added to the blank control well.
I. A compound was dissolved in 100% DMSO to formulate a 10 mM stock solution.
II. The stock solution with a concentration of 10 mM was taken, diluted with DMSO to a 2 mM solution, which was used as the starting concentration to perform a 4× gradient dilution with DMSO for 9 points.
III. 200 nL of the above compound solutions in gradient concentrations were taken and added to each well respectively.
To the blank control well and the DMSO control well were respectively added 200 nL DMSO solutions, and the final concentration of DMSO was 0.5%.
IV. The cell plate was incubated in a carbon dioxide incubator for 5 days (120H).
I. CellTiter-Glo buffer was thawed and allowed to come to room temperature.
II. A lyophilized CellTiter-Glo substrate was allowed to come to room temperature.
III. CellTiter-Glo buffer was added to a bottle of CellTiter-Glo substrate to dissolve the substrate to formulate a CellTiter-Glo working solution.
IV. The working solution was slowly vortexed to fully dissolve the contents.
V. The cell culture plate was taken and allowed to equilibrate to room temperature.
VI. […] of a mixed CellTiter Glo reagent was added to each well, oscillated for 10 minutes in the dark, and incubated for 10 minutes.
The inhibition rates (IRs) of the detected compounds were calculated according to the following formula:
IR (%)=(1−(RLUcompound−RLUblank control)/(RLUDMSO−RLUblank control)*100%,
XLFit was used to plot the efficacy inhibition rate curve, and the IC50 value was calculated using the following 4-parameter model: [fit=(A±((B−A)/(1+((C/x)^D))))].

First: COCCCCNc1cc(C(=O)N2CC[C@@H](N3CCc4ccccc4C3)[C@H](O)C2)nc(-c2ccccc2)n1 (stereo in doubt) [Example 45]
Second: CC(=O)N1CC(Nc2cc(C(=O)N3CC[C@@H](N4CCc5ccccc5C4)[C@H](O)C3)nc(-c3ccccc3)n2)C1 [Example 39]
The IC50 of the first is 9.8-fold higher: 1320 nM for the first, 135 nM for the second.

First: CC(=O)N1CCC(Nc2cc(C(=O)N3CC[C@@H](N4CCc5ccccc5C4)[C@H](O)C3)nc(-c3cc4ccccc4s3)n2)CC1 [Example 66]
Second: CC(=O)N1CCC(Nc2cc(C(=O)N3CC[C@@H](N4CCc5ccccc5C4)[C@H](O)C3)nc(Nc3ccccc3)n2)CC1 [Example 339]
The IC50 of the first is 21-fold higher: 1360 nM for the first, 65.3 nM for the second. The second is the more potent here.

`O=C(c1ccc(C(F)(F)F)cc1)N1CCC(Nc2cc(C(=O)N3CC[C@@H](N4CCc5ccccc5C4)[C@H](O)C3)ncn2)CC1` [Example 153] and `Cc1ccc(C(=O)N2CCC(Nc3cc(C(=O)N4CC[C@@H](N5CCc6ccccc6C5)[C@H](O)C4)ncn3)CC2)cc1` [Example 171] are within 1.5-fold of each other in IC50: 13.8 nM for the first, 11.5 nM for the second.

Going from `O=C(c1ccccc1)N1CCC(Nc2cc(C(=O)N3CC[C@@H](N4CCc5ccccc5C4)[C@H](O)C3)ncn2)CC1` [Example 158] to `O=C(c1ccncc1)N1CCC(Nc2cc(C(=O)N3CC[C@@H](N4CCc5ccccc5C4)[C@H](O)C3)ncn2)CC1` [Example 165], the IC50 rises from 19 nM to 33.7 nM (1.8-fold).

`O=C(c1ccncn1)N1CCC(Nc2cc(C(=O)N3CC[C@@H](N4CCc5ccccc5C4)[C@H](O)C3)ncn2)CC1` [Example 170] and `CC(C)Oc1nc(NC2CCN(C(=O)c3ccn(C)n3)CC2)cc(C(=O)N2CC[C@@H](N3CCc4ccccc4C3)[C@H](O)C2)n1` [Example 217] are within 1.5-fold of each other in IC50: 62.8 nM for the first, 60.5 nM for the second.

`O=C(c1cc(NC2CCN(C(=O)c3cccs3)CC2)nc(OC2CCCC2)n1)N1CC[C@@H](N2CCc3ccccc3C2)[C@H](O)C1` [Example 194] and `CC(C)Oc1nc(NC2CCN(C(=O)c3cccs3)CC2)cc(C(=O)N2CC[C@@H](N3CCc4ccccc4C3)[C@H](O)C2)n1` [Example 207] are within 1.5-fold of each other in IC50: 11 nM for the first, 12 nM for the second.

`CCC(CC)Oc1nc(NC2CCN(C(=O)c3ccccc3)CC2)cc(C(=O)N2CC[C@@H](N3CCc4ccccc4C3)[C@H](O)C2)n1` [Example 202] and `CCC(CC)Oc1nc(NC2CCN(C(=O)c3cnn(C)c3)CC2)cc(C(=O)N2CC[C@@H](N3CCc4ccccc4C3)[C@H](O)C2)n1` [Example 243] are within 1.5-fold of each other in IC50: 8 nM for the first, 5.8 nM for the second.

First: CC(C)COc1nc(NC2CCN(C(=O)c3ccn(C)n3)CC2)cc(C(=O)N2CC[C@@H](N3CCc4ccccc4C3)[C@H](O)C2)n1 [Example 212]
Second: COc1nc(NC2CCN(C(=O)c3ccc(C)cc3)CC2)cc(C(=O)N2CC[C@@H](N3CCc4ccccc4C3)[C@H](O)C2)n1 [Example 392, ((3R,4R)-4-(3,4-dihydroisoquinoline-2(1H)-yl)-3-hydroxypiperidine-1-yl)(2-methoxy-6-((1-(4-methylbenzoyl)piperidine-4-yl)amino)pyrimidine-4-yl)methanone hydrochloride]
The IC50 of the first is 1.8-fold higher: 22.2 nM for the first, 12.3 nM for the second.

First: Cn1cc(N2CCC(Nc3cc(C(=O)N4CC[C@@H](N5CCc6ccccc6C5)[C@H](O)C4)nc(OC4CCCC4)n3)CC2)cn1 [Example 215]
Second: Cn1cc(C(=O)N2CCC(Nc3cc(C(=O)N4CC[C@@H](N5CCc6ccccc6C5)[C@H](O)C4)nc(SC4CCCC4)n3)CC2)cn1 [Example 253]
The IC50 of the first is 21-fold higher: 157 nM for the first, 7.4 nM for the second.

First: CN(C)CCCOc1nc(NC2COC2)cc(C(=O)N2CC[C@@H](N3CCc4ccccc4C3)[C@H](O)C2)n1 [Example 259]
Second: [2H]C1([2H])CN([C@@H]2CCN(C(=O)c3cc(NC4CCN(C(=O)c5ccccc5)CC4)nc(OC(C)C)n3)C[C@H]2O)Cc2ccccc21 [Example 401, (6-((1-(benzoyl)piperidine-4-yl)amino)-2-isopropoxypyrimidine-4-yl)((3R,4R)-4-(3,4-dihydroisoquinoline-2(1H)-yl-4,4-d2)-3-hydroxypiperidine-1-1)methanone]
The IC50 of the first is 74-fold higher: 1190 nM for the first, 16 nM for the second.

Molecule `CC(=O)N1CCC(Nc2cc(OC3CCCC3)nc(C(=O)N3CC[C@@H](N4CCc5ccccc5C4)[C@H](O)C3)c2)CC1` [Example 276] has an IC50 of 111 nM.

Test system: Xenograft models of small cell lung cancer (SCLC), non-small cell lung cancer (NSCLC), acute myeloid leukemia (AML) and non-Hodgkin's lymphoma
Assay: not given
Settings: cited from earlier work

For `Nc1nc2cc(CC[C@H]3C[C@@H](n4ccc5c(N)ncnc54)[C@H](O)[C@@H]3O)ccc2cc1Br` [JNJ-64619178], the tumor growth inhibition is given as “up to 99%”.

Target: PRMT5 (Homo sapiens (Human), UniProt O14744)
Sequence (O14744 2-637): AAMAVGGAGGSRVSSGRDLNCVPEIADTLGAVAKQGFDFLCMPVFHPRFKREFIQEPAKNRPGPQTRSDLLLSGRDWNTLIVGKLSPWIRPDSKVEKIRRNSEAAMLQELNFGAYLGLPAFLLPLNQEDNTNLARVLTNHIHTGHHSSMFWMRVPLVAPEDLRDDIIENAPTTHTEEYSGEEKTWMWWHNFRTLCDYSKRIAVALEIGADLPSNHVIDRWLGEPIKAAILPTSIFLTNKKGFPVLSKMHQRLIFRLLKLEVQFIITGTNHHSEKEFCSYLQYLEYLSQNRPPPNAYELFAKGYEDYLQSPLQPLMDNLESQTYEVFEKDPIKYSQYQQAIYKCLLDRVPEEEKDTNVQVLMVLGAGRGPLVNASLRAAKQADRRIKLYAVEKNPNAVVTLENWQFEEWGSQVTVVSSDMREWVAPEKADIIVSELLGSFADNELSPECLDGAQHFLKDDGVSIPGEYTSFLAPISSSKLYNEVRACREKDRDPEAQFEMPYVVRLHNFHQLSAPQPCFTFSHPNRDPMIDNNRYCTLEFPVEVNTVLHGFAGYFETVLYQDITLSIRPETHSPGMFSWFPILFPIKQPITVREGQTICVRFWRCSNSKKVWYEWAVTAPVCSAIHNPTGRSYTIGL
Sequence (Q9BQA1 2-342 partner): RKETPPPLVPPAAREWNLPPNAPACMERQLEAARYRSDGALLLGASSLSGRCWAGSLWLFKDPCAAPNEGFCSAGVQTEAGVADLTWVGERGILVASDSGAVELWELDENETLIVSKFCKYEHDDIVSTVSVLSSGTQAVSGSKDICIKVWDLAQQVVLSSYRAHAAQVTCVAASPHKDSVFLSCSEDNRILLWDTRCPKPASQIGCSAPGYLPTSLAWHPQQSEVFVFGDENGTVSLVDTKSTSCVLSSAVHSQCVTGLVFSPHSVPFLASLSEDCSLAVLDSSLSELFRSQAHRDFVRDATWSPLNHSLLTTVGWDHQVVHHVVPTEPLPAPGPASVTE
Assay: Inhibitory activity against PRMT5 enzyme activity ([3H]-SAM FlashPlate assay)
Format: biochemical
Settings: PRMT5 5 nM, [3H]-SAM 0.3 μM, polypeptide substrate 100 nM; read-out: measured enzyme inhibitory IC50 value (PRMT5 enzyme activity)

First: CC(=O)N1CCC(Oc2cc(C(=O)N3CC[C@H](N4CCc5ccccc5C4)[C@@H](O)C3)ncn2)CC1 (relative stereo) [Example 1, trans-1-(4-((6-(4-(3,4-dihydroisoquinoline-2(1H)-yl)-3-hydroxypiperidine-1-carbonyl)pyrimidine-4-yl)oxy)piperidine-1-yl)ethane-1-one]
Second: CC(=O)N1CCC(Nc2cc(C(=O)N3CC[C@@H](N4CCc5ccccc5C4)[C@H](O)C3)nc(C)n2)CC1 [Control Example 2, 1-(4-((6-((3R,4R)-4-(3,4-dihydroisoquinoline-2(1H)-yl)-3-hydroxypiperidine-1-carbonyl)-2-methylpyrimidine-4-yl)amino)piperidine-1-yl)ethanone]
The IC50 of the first is 1.8-fold higher: 65 nM for the first, 36 nM for the second. The second is the more potent here.

`CC(=O)N1CCC(Nc2cc(C(=O)N3CC[C@H](N4CCc5ccccc5C4)[C@@H](O)C3)nc(-c3ccccc3F)n2)CC1` [Example 12] and `C=Cc1nc(NC2CCN(C(C)=O)CC2)cc(C(=O)N2CC[C@@H](N3CCc4ccccc4C3)[C@H](O)C2)n1` [Example 46] are within 1.5-fold of each other in IC50: 35.2 nM for the first, 29.1 nM for the second.

First: O=C(c1cc(NC2CCCCC2)nc(-c2ccccc2)n1)N1CC[C@@H](N2CCc3ccccc3C2)[C@H](O)C1 [Example 37]
Second: CC(=O)N1CCC(Nc2nc(C(=O)N3CC[C@@H](N4CCc5ccccc5C4)[C@H](O)C3)nc(-c3ccccc3)n2)CC1 [Example 70]
The IC50 of the first is 1.5-fold higher: 99.8 nM for the first, 66.4 nM for the second. The second is the more potent here.

`CC(=O)N1CCC(Nc2cc(C(=O)N3CC[C@@H](N4CCc5ccccc5C4)[C@H](O)C3)nc(C(=O)N(C)C)n2)CC1` [Example 59] and `CC(=O)N1CCC(Nc2cc(C(=O)N3CC[C@H](N4CCc5ccccc5C4)[C@@H](O)C3)nc(-n3ccnc3)n2)CC1` [Example 73] are within 1.5-fold of each other in IC50: 107 nM for the first, 110 nM for the second.

Compared with `O=C(c1ccc(C(F)(F)F)cc1)N1CCC(Nc2cc(C(=O)N3CC[C@@H](N4CCc5ccccc5C4)[C@H](O)C3)ncn2)CC1` [Example 153], `O=C(c1cccc(F)c1)N1CCC(Nc2cc(C(=O)N3CC[C@@H](N4CCc5ccccc5C4)[C@H](O)C3)ncn2)CC1` [Example 172] is 2.9-fold higher in IC50: 6.97 nM for the first, 20.5 nM for the second.

Compared with `O=C(c1ccccn1)N1CCC(Nc2cc(C(=O)N3CC[C@@H](N4CCc5ccccc5C4)[C@H](O)C3)ncn2)CC1` [Example 173], `CCC(CC)Oc1nc(NC2CCN(C(=O)c3ccccc3)CC2)cc(C(=O)N2CC[C@@H](N3CCc4ccccc4C3)[C@H](O)C2)n1` [Example 202] is 9.8-fold lower in IC50: 51.2 nM for the first, 5.2 nM for the second.

`Cn1cc(C(=O)N2CCC(Nc3cc(C(=O)N4CC[C@@H](N5CCc6ccccc6C5)[C@H](O)C4)nc(OC4CCCC4)n3)CC2)cn1` [Example 193] and `O=C(c1cc(NC2CCN(C(=O)c3cccs3)CC2)nc(OC2CCCC2)n1)N1CC[C@@H](N2CCc3ccccc3C2)[C@H](O)C1` [Example 194] are within 1.5-fold of each other in IC50: 6.4 nM for the first, 4.5 nM for the second.

First: CC(C)Oc1nc(NC2CCN(C(=O)c3cccs3)CC2)cc(C(=O)N2CC[C@@H](N3CCc4ccccc4C3)[C@H](O)C2)n1 [Example 207]
Second: [2H]C1([2H])CN([C@@H]2CCN(C(=O)c3cc(NC4CCN(C(=O)c5ccccc5)CC4)nc(OC(C)C)n3)C[C@H]2O)Cc2ccccc21 [Example 401, (6-((1-(benzoyl)piperidine-4-yl)amino)-2-isopropoxypyrimidine-4-yl)((3R,4R)-4-(3,4-dihydroisoquinoline-2(1H)-yl-4,4-d2)-3-hydroxypiperidine-1-1)methanone]
The IC50 of the first is 2-fold lower: 3.9 nM for the first, 7.9 nM for the second.

First: CC(C)COc1nc(NC2CCN(C(=O)c3cnn(C)c3)CC2)cc(C(=O)N2CC[C@@H](N3CCc4ccccc4C3)[C@H](O)C2)n1 [Example 213]
Second: COc1nc(NC2CCN(C(=O)c3ccc(C)cc3)CC2)cc(C(=O)N2CC[C@@H](N3CCc4ccccc4C3)[C@H](O)C2)n1 [Example 392, ((3R,4R)-4-(3,4-dihydroisoquinoline-2(1H)-yl)-3-hydroxypiperidine-1-yl)(2-methoxy-6-((1-(4-methylbenzoyl)piperidine-4-yl)amino)pyrimidine-4-yl)methanone hydrochloride]
The IC50 of the first is 1.6-fold higher: 4.5 nM for the first, 2.8 nM for the second.

In the case of `Cc1ccc(C(=O)N2CCC(Nc3cc(C(=O)N4CC[C@@H](N5CCc6ccccc6C5)[C@H](O)C4)nc(N4CCCC4)n3)CC2)cc1` [Example 315], the IC50 is reported as 4.7 nM.

Test system: not given
Assay: not given
Settings: Phase I, adult patients with solid tumors; cited from earlier work

For `CC(=O)N1CCC(Nc2cc(C(=O)NC[C@H](O)CN3CCc4ccccc4C3)ncn2)CC1` [GSK3326595], the PK in plasma is listed as “dose-dependent”.
